Converted amounts (≈) assume the structure as drawn. Where two headings read alike, the source gives them in different places. Positions of bridges follow the written chain, without caps; N, C: chain ends. Residues, ends and D or L forms follow the SMILES beside them.
Columns and labels:
P. aeruginosa ATCC 15442 = format: cell-based
Source text: (§1) Thirty (30) Pneumococcal clinical isolates were obtained from University of Malaya Medical Centre (UMMC). For broad-spectrum activity of AMPs, E. coli ATCC 25922, Staphylococcus aureus ATCC 25923, P. aeruginosa ATCC 15442, Acinetobacter baumanii ATCC 15308, and one clinical isolate of each methicillin resistant S. aureus (MRSA), […], citrobacter spp., and K. pneumoniae were used in this study.
(§2) The minimum inhibitory concentration (MIC) of the peptides against 30 pneumococcal isolates was determined by broth microdilution protocol as indicated by the CLSI guidelines (Clinical and Laboratory Standards Institute). Briefly, bacterial strains were grown for 18–24 hr at 37°C under 5% CO2. Direct suspension of the colonies were made in cationically-adjusted Müeller-Hinton broth (CAMHB) and adjusted to OD 625 0.08–0.1 which corresponds to 1 ~ 2 x10^8 CFU/ml followed by serial ten-fold dilutions to give 1x10^6 CFU/ml. 50μl of bacterial suspension were added to 96-well round bottom microtiter plates containing equal volume of peptides at different concentrations (1.95, 3.90, 7.81, 15.62, 31.25, 62.5, 125, 250μg/ml) and the 96-well plates were incubated for 20-24hr at 37°C in the presence of 5% CO2.

citrobacter spp = format: cell-based
Source text: as §1, §2

Enterococcus cloacae = format: cell-based
Source text: as §1, §2

E. coli ATCC 25922 = format: cell-based
Source text: as §1, §2

[1] = system: Acinetobacter baumanii ATCC 15308; format: cell-based
Source text: as §1, §2

K. pneumoniae = format: cell-based
Source text: as §1, §2

[2] = system: Methicillin resistant S. aureus (MRSA); format: cell-based
Source text: as §1, §2

human erythrocytes = test: Hemolytic activity assay; format: cell-based; details: 250μg/ml; 4% human RBCs in PBS, 1hr, 37°C, absorbance 560 nm, relative to 0.1% Triton X-100, triplicate
Description: The hemolytic activity of the peptides was tested using human erythrocytes as described previously. Human red blood cells (RBCs) were freshly collected from a healthy donor, washed three times using sterile phosphate buffered saline (PBS) and centrifuged at 2000 rpm for 10 min until the upper solution became clear. RBCs were diluted to a final concentration of 4%, and 100μl of peptides at different concentrations (1.95 to 250μg/ml) were mixed with equivalent volumes of erythrocyte suspensions. After 1hr of incubation at 37°C, the cells were centrifuged at 2000 rpm for 10 min and the absorbance of the supernatants was measured at 560 nm using GloMax Multi Detection System (Promega, USA). PBS and 0.1% Triton X-100 were used as negative and positive controls, respectively. The assay was done in triplicate, and percentage of hemolysis was calculated using the following formula: 100% hemolysis = 100 (Apeptide-APBS) / (Atriton-APBS). We obtained the blood from the Blood Bank of University […] Medical Centre and ethical clearance for this work was approved by the Scientific and Ethical Committee of UMMC (Ethics Committee/IRB Reference No: 321.4). Written informed consent was obtained for each collection.

[3] = system: S. pneumoniae (30 clinical isolates); format: cell-based, Streptococcus pneumoniae; details: for MIC S. pneumoniae (30 clinical isolates): broth microdilution, CAMHB, 20-24hr, 37°C, 5% CO2, lowest concentration that completely inhibits growth
Source text: as §1, §2

E. coli = details: cited from earlier work
S. aureus = details: cited from earlier work
S. aureus ATCC 25923 = format: cell-based, Staphylococcus aureus
Source text: as §1, §2

Streptococcus pneumoniae = test: Time killing assay; format: cell-based; details: 1×MIC, MHB, 37°C, sampled every 30 min to 240 min, triplicate
Description: The bactericidal activities of peptides were performed as described previously. […] 10μl of bacterial suspensions were removed at various time intervals (30, 60, 90, 120, 150, 180, 210, and 240 min), serially diluted in PBS and plated onto Columbia agar with 5% sheep blood for 20-24hr at 37°C in the presence of 5% CO2 to obtain viable colonies. Erythromycin and ceftriaxone were used as positive control and the assay was performed in triplicate.

[4] = system: WRL-68 normal liver cell line; format: cell-based, human
Description: (§3) CellTiter 96 AQueous Non-Radioactive Cell Proliferation assay (Promega, USA) was used to evaluate the cytotoxic effects of peptides. WRL-68 (ATCC CL-48) and NL-20 (ATCC CRL2503) cell lines were purchased from American Type Culture Collection (ATCC, USA). The cell lines were grown in Dulbecco's modified Eagle's medium (DMEM) and Ham’s F-12 medium, respectively. Cells were supplemented with 10% (v/v) fetal bovine serum (FBS) in T75 flasks and incubated at 37°C in the presence of 5% CO2. Cells were seeded into 96-well plates at a density of 1×10^4 and 3×10^4 cells per well, respectively. Peptides were added to the wells at different concentrations (1.95, 3.90, 7.81, 15.62, 31.25, 62.5, 125, and 250μg) and plates were incubated at 37°C under 5% CO2 for 24, 48, and 72 hrs. Medium with and without cells was used as positive and negative controls, respectively. After incubation, 20μl of the reagent were added to each well and incubated for 1 hr at 37°C under 5% CO2. Metabolically active cells convert the yellow MTS to purple formazan, allowing for monitoring of the reaction. The absorbance was monitored at 490 nm using GloMax Multi Detection System (Promega, USA). The percentage of viable cells was calculated according to the following formula: 100 (AT-AB/AC-AB), where AT and AC are the absorbance of treated and control cells (100% survival). AB is the absorbance of medium alone. The assay was done in triplicate.

[5] = system: NL-20 normal lung cell line; format: cell-based, human
Description: as §3

[6] = numbers in parentheses are micromolar concentrations, unit of the source corrected
[7] = numbers in parentheses are micromolar concentrations

Row | Molecule | MIC P. aeruginosa ATCC 15442, in parentheses (P. aeruginosa ATCC 15442; [6]) | MIC citrobacter spp, in parentheses (citrobacter spp; [7]) | MIC Enterococcus cloacae, in parentheses (Enterococcus cloacae; [7]) | MIC E. coli ATCC 25922, in parentheses (E. coli ATCC 25922; [6]) | MIC Acinetobacter baumanii ATCC 15308, in parentheses [1, 7] | MIC K. pneumoniae, in parentheses (K. pneumoniae; [7]) | MIC MRSA, in parentheses [2, 6] | MIC S. pneumoniae (30 clinical isolates), in parentheses [3, 6] | time to completely kill 10^6 CFU/ml of S. pneumoniae (Streptococcus pneumoniae) | concentration at which toxic, WRL-68 [4] | concentration at which toxic, NL-20 [5] | MIC S. pneumoniae (30 clinical isolates) [3] | MIC S. aureus ATCC 25923, in parentheses (S. aureus ATCC 25923; [6]) | other results
1 | CC[C@H](C)[C@H](N)C(=O)N[C@@H](CC(C)C)C(=O)N1CCC[C@H]1C(=O)N[C@@H](Cc1c[nH]c2ccccc12)C(=O)N[C@@H](CCCCN)C(=O)N[C@@H](Cc1c[nH]c2ccccc12)C(=O)N1CCC[C@H]1C(=O)N[C@@H](Cc1c[nH]c2ccccc12)C(=O)N[C@@H](Cc1c[nH]c2ccccc12)C(=O)N1CCC[C@H]1C(=O)N[C@@H](Cc1c[nH]c2ccccc12)C(=O)N[C@@H](CCCNC(=N)N)C(=O)N[C@@H](CCCNC(=N)N)C(N)=O [Indolicidin, reference compound] | 31.2 mg/L (≈ 16.4 µM) | >250 (>131) micromolar | >250 (>131) micromolar | 31.2 mg/L (≈ 16.4 µM) | >250 (131) micromolar | >250 (>131) micromolar | 31.2 mg/L (≈ 16.4 µM) | 15.6 to 31.2 mg/L (≈ 8.19 to 16.4 µM) |  |  |  |  |  | hemolytic activity (human erythrocytes): 56.98%
2 | CC[C@H](C)[C@H](NC(=O)[C@H](CCSC)NC(=O)[C@H](C)NC(=O)[C@@H]1CCCN1C(=O)[C@@H](NC(=O)[C@@H](NC(=O)[C@H](CCCCN)NC(=O)[C@@H](NC(=O)[C@H](CC(C)C)NC(=O)CNC(=O)CNC(=O)[C@H](CC(C)C)NC(=O)[C@@H](N)Cc1ccccc1)[C@@H](C)CC)[C@@H](C)CC)C(C)C)C(=O)N[C@H]1CSSC[C@@H](C(=O)O)NC(=O)[C@H](CCCCN)NC(=O)[C@H](CCCCN)NC(=O)[C@H]([C@@H](C)O)NC(=O)[C@H](C(C)C)NC(=O)[C@H](C)NC1=O [Ranalexin, reference compound] (H-FLGGLIKIVPAMICAVTKKC-OH; disulfide 14-20; N-terminus assumed) |  |  |  |  |  |  |  |  |  |  |  |  |  | MIC against E. coli (E. coli): 32 mg/L (≈ 15.2 µM); MIC P. aeruginosa ATCC 15442, in parentheses (P. aeruginosa ATCC 15442; ATCC 15442): 125 mg/L (≈ 59.4 µM); MIC citrobacter spp, in parentheses (citrobacter spp): >250 (>118) micromolar; MIC Enterococcus cloacae, in parentheses (Enterococcus cloacae): >250 (>118) micromolar; MIC E. coli ATCC 25922, in parentheses (E. coli ATCC 25922; ATCC 25922): 62.5 mg/L (≈ 29.7 µM); MIC Acinetobacter baumanii ATCC 15308, in parentheses ([1]; ATCC 15308): >250 (>118) micromolar; MIC K. pneumoniae, in parentheses (K. pneumoniae): >250 (>118) micromolar; MIC MRSA, in parentheses ([2]; Methicillin resistant): 31.2 mg/L (≈ 14.9 µM); MIC against S. aureus (S. aureus): 4 mg/L (≈ 1.9 µM); MIC S. pneumoniae (30 clinical isolates), in parentheses ([3]; 30 clinical isolates): 62.5 mg/L (≈ 29.7 µM); MIC S. aureus ATCC 25923, in parentheses (S. aureus ATCC 25923; ATCC 25923): 31.2 mg/L (≈ 14.9 µM)
3 | FLGGLIKWPWWPWRR-NH2 [RN7-IN8, hybrid peptide of ranalexin and indolicidin] | 31.2 mg/L | >250 (>125) micromolar | >250 (>125) micromolar | 7.81 mg/L | 62.5 (31.3) micromolar | >250 (>125) micromolar | 7.81 mg/L | 7.81 to 15.6 mg/L | 120 min | ≥ 62.5 µg/mL | ≥ 125 µg/mL | 7.81 to 15.62 mg/L | 7.81 mg/L | 
4 | FLGGLIKWKWPWWPWRR-NH2 [RN7-IN10, hybrid peptide of ranalexin and indolicidin] | 31.2 mg/L | >250 (>108) micromolar | >250 (>108) micromolar | 7.81 mg/L | 31.25 (13.51) micromolar | >250 (>108) micromolar | 7.81 mg/L | 7.81 to 15.6 mg/L | 30 min | ≥ 62.5 µg/mL | ≥ 125 µg/mL | 7.81 to 15.62 mg/L | 7.81 mg/L | 
5 | FLGGLIKWWPWRR-NH2 [RN7-IN6, hybrid peptide of ranalexin and indolicidin] | 31.2 mg/L | >250 (>145.84) micromolar | >250 (>145.84) micromolar | 7.81 mg/L | 31.25 (18.23) micromolar | >250 (>145.84) micromolar | 7.81 mg/L | 7.81 to 15.6 mg/L | 240 min | ≥ 62.5 µg/mL | ≥ 125 µg/mL | 7.81 to 15.62 mg/L | 7.81 mg/L | 
